US20240165244A1 (Prelude Therapeutics Incorporated, priority 2022, published 2024)

Experiments:
[1] = target: T1, SMARCA2 (Homo sapiens, UniProt P51531); experiment: SMARCA2 HiBiT degradation assay in HeLa cells; assay type: cell-based; details: 18 hours, highest concentration 10 μM
T1 construct: SMARCA2-HiBiT knock-in Hela monoclonal cell (CS302366); host or cells: HeLa monoclonal cells with heterozygous HiBiT knock-in at the endogenous SMARCA2 locus
Procedure, shortened: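 HeLa cells carrying a heterozygous C-terminal HiBiT knock-in on SMARCA2 were seeded at 2500 cells/well. They were treated with 3-fold dilution series, top concentration 10 μM, for 18 h at 37 °C. Remaining SMARCA2-HiBiT was measured by Nano-Glo HiBiT lytic luminescence after 30-60 min at RT, followed by curve fitting.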

[2] = target: T2, SMARCA4 (Homo sapiens, UniProt P51532); experiment: SMARCA4 HiBiT degradation assay in HeLa cells; assay type: cell-based; details: 18 hours, highest concentration 10 μM
T2 construct: SMARCA4-HiBiT knock-in Hela monoclonal cell (CS3023226); host or cells: HeLa monoclonal cells with heterozygous HiBiT knock-in at the endogenous SMARCA4 locus
T2 sequence (P51532 whole entry): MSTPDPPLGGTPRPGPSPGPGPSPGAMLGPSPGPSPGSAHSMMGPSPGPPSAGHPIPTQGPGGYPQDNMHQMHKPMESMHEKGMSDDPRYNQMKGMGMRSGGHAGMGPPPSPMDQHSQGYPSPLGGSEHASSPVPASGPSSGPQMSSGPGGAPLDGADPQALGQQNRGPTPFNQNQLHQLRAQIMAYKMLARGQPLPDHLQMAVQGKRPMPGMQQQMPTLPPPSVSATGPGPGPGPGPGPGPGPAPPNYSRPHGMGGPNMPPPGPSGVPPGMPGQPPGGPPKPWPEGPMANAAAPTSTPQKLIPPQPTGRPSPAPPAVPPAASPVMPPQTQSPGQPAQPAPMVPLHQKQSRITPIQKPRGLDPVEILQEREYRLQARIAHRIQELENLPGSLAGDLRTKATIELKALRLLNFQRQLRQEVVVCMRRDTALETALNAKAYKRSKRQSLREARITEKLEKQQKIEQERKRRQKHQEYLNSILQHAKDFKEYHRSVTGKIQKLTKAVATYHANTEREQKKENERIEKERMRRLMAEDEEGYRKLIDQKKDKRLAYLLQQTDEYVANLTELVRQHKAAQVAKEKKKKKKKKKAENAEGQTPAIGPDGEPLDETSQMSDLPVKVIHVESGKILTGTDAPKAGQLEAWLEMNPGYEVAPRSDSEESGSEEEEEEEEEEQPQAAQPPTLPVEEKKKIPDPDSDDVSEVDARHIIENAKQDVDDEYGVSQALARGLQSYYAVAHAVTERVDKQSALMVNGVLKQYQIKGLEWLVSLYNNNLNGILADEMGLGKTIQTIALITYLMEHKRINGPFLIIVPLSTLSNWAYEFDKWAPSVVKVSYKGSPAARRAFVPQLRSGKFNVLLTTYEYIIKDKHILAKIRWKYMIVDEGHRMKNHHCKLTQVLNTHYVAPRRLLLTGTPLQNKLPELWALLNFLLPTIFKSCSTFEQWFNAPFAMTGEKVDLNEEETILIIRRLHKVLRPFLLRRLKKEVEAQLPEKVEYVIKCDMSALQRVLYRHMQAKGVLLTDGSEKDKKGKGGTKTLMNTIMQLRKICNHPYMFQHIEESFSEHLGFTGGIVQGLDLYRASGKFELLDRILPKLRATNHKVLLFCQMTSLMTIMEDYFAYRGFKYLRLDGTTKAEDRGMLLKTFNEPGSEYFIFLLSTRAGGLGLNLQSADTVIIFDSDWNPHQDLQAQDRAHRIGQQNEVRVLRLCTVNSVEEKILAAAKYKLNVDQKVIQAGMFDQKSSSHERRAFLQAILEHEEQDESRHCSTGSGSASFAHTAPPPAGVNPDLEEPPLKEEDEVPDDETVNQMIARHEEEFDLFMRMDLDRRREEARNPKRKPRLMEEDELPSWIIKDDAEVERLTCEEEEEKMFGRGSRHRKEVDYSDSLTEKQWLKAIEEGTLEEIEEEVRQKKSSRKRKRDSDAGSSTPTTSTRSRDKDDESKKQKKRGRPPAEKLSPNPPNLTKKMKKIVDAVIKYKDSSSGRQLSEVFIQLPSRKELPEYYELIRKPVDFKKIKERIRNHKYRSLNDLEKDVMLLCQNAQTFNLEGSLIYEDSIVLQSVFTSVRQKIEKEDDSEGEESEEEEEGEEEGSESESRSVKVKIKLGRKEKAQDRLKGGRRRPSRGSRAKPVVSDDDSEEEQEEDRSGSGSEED
Procedure, shortened: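 HeLa monoclonal cells with HiBiT knocked into SMARCA4 were seeded at 2500 cells/well, dosed with compound and incubated 18 hours at 37° C. HiBiT signal reported remaining SMARCA4 protein, and values came from curve fitting.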

T1 sequence (P51531 whole entry): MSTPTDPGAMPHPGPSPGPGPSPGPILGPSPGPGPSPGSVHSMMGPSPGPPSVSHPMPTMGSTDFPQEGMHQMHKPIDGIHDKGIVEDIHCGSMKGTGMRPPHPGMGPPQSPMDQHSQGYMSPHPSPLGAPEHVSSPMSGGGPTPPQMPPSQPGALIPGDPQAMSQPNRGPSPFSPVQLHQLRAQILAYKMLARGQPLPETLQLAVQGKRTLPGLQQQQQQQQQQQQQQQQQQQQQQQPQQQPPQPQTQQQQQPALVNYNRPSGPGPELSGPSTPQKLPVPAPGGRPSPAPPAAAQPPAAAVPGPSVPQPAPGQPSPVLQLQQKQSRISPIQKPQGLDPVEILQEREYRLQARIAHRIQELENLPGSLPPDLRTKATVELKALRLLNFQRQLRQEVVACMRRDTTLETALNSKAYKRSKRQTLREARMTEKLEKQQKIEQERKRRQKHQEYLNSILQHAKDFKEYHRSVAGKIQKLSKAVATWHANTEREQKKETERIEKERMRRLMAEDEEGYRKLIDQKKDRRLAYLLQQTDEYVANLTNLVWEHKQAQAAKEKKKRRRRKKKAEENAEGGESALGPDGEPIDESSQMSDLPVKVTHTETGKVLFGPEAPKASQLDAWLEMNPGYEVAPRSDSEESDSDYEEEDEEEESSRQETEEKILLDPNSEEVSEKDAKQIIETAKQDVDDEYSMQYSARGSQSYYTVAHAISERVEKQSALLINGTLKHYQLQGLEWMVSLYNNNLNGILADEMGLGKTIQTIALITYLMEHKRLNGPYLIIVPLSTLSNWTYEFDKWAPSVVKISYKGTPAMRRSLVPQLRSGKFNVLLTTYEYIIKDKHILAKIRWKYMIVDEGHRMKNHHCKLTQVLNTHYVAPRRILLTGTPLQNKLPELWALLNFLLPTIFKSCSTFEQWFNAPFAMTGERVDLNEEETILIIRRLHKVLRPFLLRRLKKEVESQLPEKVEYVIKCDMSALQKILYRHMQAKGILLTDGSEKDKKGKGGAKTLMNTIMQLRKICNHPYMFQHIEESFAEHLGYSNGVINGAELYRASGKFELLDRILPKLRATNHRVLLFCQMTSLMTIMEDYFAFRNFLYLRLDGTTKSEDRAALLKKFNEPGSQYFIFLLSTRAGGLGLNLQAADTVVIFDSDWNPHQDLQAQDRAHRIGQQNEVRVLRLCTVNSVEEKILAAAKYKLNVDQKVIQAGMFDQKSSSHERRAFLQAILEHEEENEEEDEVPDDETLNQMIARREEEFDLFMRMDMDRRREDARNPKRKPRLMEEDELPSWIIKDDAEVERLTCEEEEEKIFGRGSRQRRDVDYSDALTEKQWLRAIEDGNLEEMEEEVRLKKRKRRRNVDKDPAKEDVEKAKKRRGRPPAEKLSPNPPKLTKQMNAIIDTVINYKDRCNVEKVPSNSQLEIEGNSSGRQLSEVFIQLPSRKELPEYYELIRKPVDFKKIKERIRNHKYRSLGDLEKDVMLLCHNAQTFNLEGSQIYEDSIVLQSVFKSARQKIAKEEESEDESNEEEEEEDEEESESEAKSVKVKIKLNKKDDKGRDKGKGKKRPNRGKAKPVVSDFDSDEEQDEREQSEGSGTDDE

SMILES	DC50 [1] [nM]	Dmax [1] [%]	DC50 [2] [nM]	Dmax [2] [%]
O=C1CCC(N2Cc3ccc(N4CCN(Cc5cnc(O[C@H]6CN7c8cc(-c9cccc(F)c9O)nnc8NC[C@]7(C(F)F)C6)c(F)c5)CC4)cc3C2=O)C(=O)N1 (stereo partly drawn) [Example 54, 3-(6-(4-((6-(((6aS,8R)-6a-(difluoromethyl)-2-(3-fluoro-2-hydroxyphenyl)-5,6,6a,7,8,9-hexahydropyrrolo[1′,2′:4,5]pyrazino[2,3-c]pyridazin-8-yl)oxy)-5-fluoropyridin-3-yl)methyl)piperazin-1-yl)-1-oxoisoindolin-2-yl)piperidine-2,6-dione]	< 100	> 75	< 100	50 to 75
Cc1cc(O[C@@H]2C[C@@H]3CNc4nnc(-c5cc(F)cc(F)c5O)cc4N3C2)ncc1CN1CCN(c2ccc3c(c2)C(=O)N([C@H]2CCC(=O)NC2=O)C3)CC1 [Example 28, (S)-3-(6-(4-((6-(((6aR,8R)-2-(3,5-difluoro-2-hydroxyphenyl)-5,6,6a,7,8,9-hexahydropyrrolo[1′,2′:4,5]pyrazino[2,3-c]pyridazin-8-yl)oxy)-4-methylpyridin-3-yl)methyl)piperazin-1-yl)-1-oxoisoindolin-2-yl)piperidine-2,6-dione]	< 100	> 75	< 100	50 to 75
CC(C)c1cc(O[C@@H]2C[C@@H]3CNc4nnc(-c5cc(F)cc(F)c5O)cc4N3C2)ccc1CN1CCN(c2ccc3c(c2)C(=O)N(C2CCC(=O)NC2=O)C3)CC1 (stereo partly drawn) [Example 16, 3-(6-(4-(4-(((6aR,8R)-2-(3,5-difluoro-2-hydroxyphenyl)-5,6,6a,7,8,9-hexahydropyrrolo[1′,2′:4,5]pyrazino[2,3-c]pyridazin-8-yl)oxy)-2-isopropylbenzyl)piperazin-1-yl)-1-oxoisoindolin-2-yl)piperidine-2,6-dione]	< 100	50 to 75	< 100	50 to 75
O=C1CCC(N2Cc3ccc(N4CCN(Cc5ccc(O[C@@H]6C[C@@H]7CNc8nnc(-c9cc(F)cc(F)c9O)cc8N7C6)cc5)CC4)cc3C2=O)C(=O)N1 (stereo partly drawn) [Example 1, 3-(6-(4-(4-(((6aR,8R)-2-(3,5-difluoro-2-hydroxyphenyl)-5,6,6a,7,8,9-hexa-hydropyrrolo[1′,2′:4,5]pyrazino[2,3-c]pyridazin-8-yl)oxy)benzyl)piperazin-1-yl)-1-oxoisoindolin-2-yl)piperidine-2,6-dione]	< 100	> 75	< 100	> 75
Cc1cc(CN2CCN(c3ccc4c(c3)C(=O)N(C3CCC(=O)NC3=O)C4)CC2)cnc1O[C@@H]1C[C@@H]2CNc3nnc(-c4cc(F)cc(F)c4O)cc3N2C1 (stereo partly drawn) [Example 31, 3-(6-(4-((6-(((6aR,8R)-2-(3,5-difluoro-2-hydroxyphenyl)-5,6,6a,7,8,9-hexahydropyrrolo[1′,2′:4,5]pyrazino[2,3-c]pyridazin-8-yl)oxy)-5-methylpyridin-3-yl)methyl)piperazin-1-yl)-1-oxoisoindolin-2-yl)piperidine-2,6-dione]	< 100	> 75	< 100	> 75
O=C1CCC(N2Cc3ccc(N4CCN(Cc5ccc(O[C@@H]6C[C@@H]7CNc8nnc(-c9cccc(F)c9O)cc8N7C6)cc5)CC4)cc3C2=O)C(=O)N1 (stereo partly drawn) [Example 5, 3-(6-(4-(4-(((6aR,8R)-2-(3-fluoro-2-hydroxyphenyl)-5,6,6a,7,8,9-hexahydropyrrolo[1′,2′:4,5]pyrazino[2,3-c]pyridazin-8-yl)oxy)benzyl)piperazin-1-yl)-1-oxoisoindolin-2-yl)piperidine-2,6-dione]	< 100	> 75	< 100	> 75
O=C1CC[C@H](N2Cc3ccc(C4CCN(Cc5ccc(O[C@H]6CN7c8cc(-c9cccc(F)c9O)nnc8NC[C@@]7(C(F)F)C6)nc5)CC4)cc3C2=O)C(=O)N1 [Example 90, (S)-3-(6-(1-((6-(((6aR,8R)-6a-(difluoromethyl)-2-(3-fluoro-2-hydroxyphenyl)-5,6,6a,7,8,9-hexahydropyrrolo[1′,2′:4,5]pyrazino[2,3-c]pyridazin-8-yl)oxy)pyridin-3-yl)methyl)piperidin-4-yl)-1-oxoisoindolin-2-yl)piperidine-2,6-dione]	< 100	> 75	> 1000	< 50
CCc1cc(CN2CCN(c3ccc4c(c3)C(=O)N([C@H]3CCC(=O)NC3=O)C4)CC2)cnc1O[C@H]1CN2c3cc(-c4cccc(F)c4O)nnc3NC[C@@]2(C(F)F)C1 [Example 44, (S)-3-(6-(4-((6-(((6aR,8R)-6a-(difluoromethyl)-2-(3-fluoro-2-hydroxyphenyl)-5,6,6a,7,8,9-hexahydropyrrolo[1′,2′:4,5]pyrazino[2,3-c]pyridazin-8-yl)oxy)-5-ethylpyridin-3-yl)methyl)piperazin-1-yl)-1-oxoisoindolin-2-yl)piperidine-2,6-dione]	< 100	> 75	100 to 1000	
Cc1cc(O[C@@H]2C[C@@H]3CNc4nnc(-c5cccc(Cl)c5O)cc4N3C2)ccc1CN1CCN(c2ccc3c(c2)C(=O)N(C2CCC(=O)NC2=O)C3)CC1 (stereo partly drawn) [Example 10, 3-(6-(4-(4-(((6aR,8R)-2-(3-chloro-2-hydroxyphenyl)-5,6,6a,7,8,9-hexahydropyrrolo[1′,2′:4,5]pyrazino[2,3-c]pyridazin-8-yl)oxy)-2-methylbenzyl)piperazin-1-yl)-1-oxoisoindolin-2-yl)piperidine-2,6-dione]	< 100	> 75	> 1000	50 to 75
Cc1nc(O[C@H]2CN3c4cc(-c5cccc(F)c5O)nnc4NC[C@]3(CF)C2)c(F)cc1CN1CCN(c2ccc3c(c2)C(=O)N([C@H]2CCC(=O)NC2=O)C3)CC1 [Example 69, (S)-3-(6-(4-((5-fluoro-6-(((6aS,8R)-2-(3-fluoro-2-hydroxyphenyl)-6a-(fluoromethyl)-5,6,6a,7,8,9-hexahydropyrrolo[1′,2′:4,5]pyrazino[2,3-c]pyridazin-8-yl)oxy)-2-methylpyridin-3-yl)methyl)piperazin-1-yl)-1-oxoisoindolin-2-yl)piperidine-2,6-dione]	< 100	> 75	< 100	> 75
Cc1cccc(-c2cc3c(nn2)NC[C@H]2C[C@@H](Oc4ccc(CN5CCN(c6ccc7c(c6)C(=O)N(C6CCC(=O)NC6=O)C7)CC5)cc4)CN32)c1O (stereo partly drawn) [Example 23, 3-(6-(4-(4-(((6aR,8R)-2-(2-hydroxy-3-methylphenyl)-5,6,6a,7,8,9-hexahydropyrrolo[1′,2′:4,5]pyrazino[2,3-c]pyridazin-8-yl)oxy)benzyl)piperazin-1-yl)-1-oxoisoindolin-2-yl)piperidine-2,6-dione]	< 100	> 75	< 100	50 to 75
Cc1c(CN2CCC(c3ccc4c(c3)C(=O)N([C@H]3CCC(=O)NC3=O)C4)CC2)cnc(O[C@H]2CN3c4cc(-c5cccc(F)c5O)nnc4NC[C@]3(C(F)F)C2)c1F [Example 89, (S)-3-(6-(1-((6-(((6aS,8R)-6a-(difluoromethyl)-2-(3-fluoro-2-hydroxyphenyl)-5,6,6a,7,8,9-hexahydropyrrolo[1′,2′:4,5]pyrazino[2,3-c]pyridazine-8-yl)oxy)-5-fluoro-4-methylpyridin-3-yl)methyl)piperidin-4-yl)-1-oxoisoindolin-2-yl)piperidine-2,6-dione]	< 100	> 75	< 100	> 75
O=C1CCC(N2Cc3ccc(N4CCN(Cc5cnc(O[C@H]6CN7c8cc(-c9cccc(F)c9O)nnc8NC[C@@]7(CF)C6)c(F)c5)CC4)cc3C2=O)C(=O)N1 (stereo partly drawn) [Example 70, 3-(6-(4-((5-fluoro-6-(((6aR,8R)-2-(3-fluoro-2-hydroxyphenyl)-6a-(fluoromethyl)-5,6,6a,7,8,9-hexahydropyrrolo[1′,2′:4,5]pyrazino[2,3-c]pyridazin-8-yl)oxy)pyridin-3-yl)methyl)piperazin-1-yl)-1-oxoisoindolin-2-yl)piperidine-2,6-dione]	< 100	> 75	< 100	50 to 75
Cc1c(CN2CCN(c3ccc4c(c3)C(=O)N([C@H]3CCC(=O)NC3=O)C4)CC2)cnc(O[C@H]2CN3c4cc(-c5cccc(F)c5O)nnc4NC[C@@]3(CF)C2)c1F [Example 71, (S)-3-(6-(4-((5-fluoro-6-(((6aR,8R)-2-(3-fluoro-2-hydroxyphenyl)-6a-(fluoromethyl)-5,6,6a,7,8,9-hexahydropyrrolo[1′,2′:4,5]pyrazino[2,3-c]pyridazin-8-yl)oxy)-4-methylpyridin-3-yl)methyl)piperazin-1-yl)-1-oxoisoindolin-2-yl)piperidine-2,6-dione]	< 100	> 75	> 1000	< 50
Cc1cc(O[C@@H]2C[C@@H]3CNc4nnc(-c5cc(F)cc(F)c5O)cc4N3C2)ccc1CN1CCN(c2ccc3c(c2)C(=O)N(C2CCC(=O)NC2=O)C3)CC1 (stereo partly drawn) [Example 7, 3-(6-(4-(4-(((6aR,8R)-2-(3,5-difluoro-2-hydroxyphenyl)-5,6,6a,7,8,9-hexahydropyrrolo[1′,2′:4,5]pyrazino[2,3-c]pyridazin-8-yl)oxy)-2-methylbenzyl)piperazin-1-yl)-1-oxoisoindolin-2-yl)piperidine-2,6-dione]	< 100	> 75	< 100	50 to 75
